compound: CC(C)CCN1c2nc(Nc3cc(F)c(O)c(F)c3)ncc2N(C)C(=O)C1C [BI-D1870] + N=C(N)NC(=N)NCCc1ccccc1 [Phenformin] (partner 250 µM); test: relative viability (nuclei count vs DMSO), 5 days (fraction); higher = more cells survive; settings: first compound 0.04 µM
How it was run: (§1)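 Each reported value is a median over duplicate plates. It expresses relative viability: treated-well nuclei count divided by vehicle-well nuclei count. Lung cancer cell lines in 1536-well plates were dosed by pin tool a day after seeding, alone with one drug or with a fixed anchor-drug dose plus five library-drug doses (not always all listed) in √10 steps, and nuclei were counted after 5 days.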

Cell Line	relative viability
SW 1573	0.487
NCI-H838	0.523
LCLC-103H	0.376
NCI-H520	0.514
NCI-H2126	0.525
EMC-BAC-2	0.578
NCI-H2085	0.806
HCC-366	0.705
NCI-H1666	0.572
NCI-H596	0.809
LK-2	0.631
NCI-H2087	0.512
SK-MES-1	0.732
H3255	0.408
COR-L23	0.461
COR-L 105	0.562
LOU-NH91	0.744
ChaGo-K-1	0.481
NCI-H2170	0.439
NCI-H2405	0.436
HOP-62	0.705
HCC-44	0.315
A549	0.211
NCI-H522	0.754
LU99A	1.05
BEN	0.272
HARA	0.513
NCI-H1563	0.669

same assay, conditions: first compound 0.1265 µM

Cell Line	relative viability
NCI-H2342	0.609
NCI-H1623	0.494
NCI-H727	0.614
NCI-H1650	0.362
NCI-H1993	0.403
SW 1573	0.212
NCI-H838	0.503
LCLC-103H	0.301
NCI-H520	0.596
NCI-H2126	0.493
EMC-BAC-2	0.519
NCI-H2085	0.658
HCC-366	0.587
NCI-H1666	0.521
NCI-H596	0.683
LK-2	0.437
NCI-H2087	0.532

Cell Line	relative viability
SK-MES-1	0.593
H3255	0.323
COR-L23	0.438
COR-L 105	0.396
LOU-NH91	0.63
ChaGo-K-1	0.522
NCI-H2170	0.414
NCI-H2405	0.415
HOP-62	0.657
HCC-44	0.211
A549	0.174
NCI-H522	0.603
LU99A	0.804
BEN	0.29
HARA	0.455
NCI-H1563	0.651

same assay, conditions: first compound 0.4 µM

Cell Line	relative viability
NCI-H2342	0.606
NCI-H1623	0.562
NCI-H727	0.587
NCI-H1650	0.358
NCI-H1993	0.487
SW 1573	0.308
NCI-H838	0.613
LCLC-103H	0.316
NCI-H520	0.584
NCI-H2126	0.508
EMC-BAC-2	0.53
NCI-H2085	0.676
HCC-366	0.608
NCI-H1666	0.592
NCI-H596	0.695
LK-2	0.451
NCI-H2087	0.486

Cell Line	relative viability
SK-MES-1	0.613
H3255	0.334
COR-L23	0.499
COR-L 105	0.422
LOU-NH91	0.703
ChaGo-K-1	0.477
NCI-H2170	0.415
NCI-H2405	0.386
HOP-62	0.719
HCC-44	0.186
A549	0.177
NCI-H522	0.677
LU99A	0.799
BEN	0.273
HARA	0.475
NCI-H1563	0.643

same assay, conditions: first compound 1.265 µM

Cell Line	relative viability
NCI-H2342	0.733
NCI-H1623	0.572
NCI-H727	0.712
NCI-H1650	0.414
NCI-H1993	0.468
SW 1573	0.394
NCI-H838	0.595
LCLC-103H	0.36
NCI-H520	0.537
NCI-H2126	0.53
EMC-BAC-2	0.549
NCI-H2085	0.69
HCC-366	0.608
NCI-H1666	0.58
NCI-H596	0.74
LK-2	0.545
NCI-H2087	0.536

Cell Line	relative viability
SK-MES-1	0.648
H3255	0.356
COR-L23	0.407
COR-L 105	0.489
LOU-NH91	0.817
ChaGo-K-1	0.481
NCI-H2170	0.423
NCI-H2405	0.438
HOP-62	0.823
HCC-44	0.256
A549	0.207
NCI-H522	0.763
LU99A	0.634
BEN	0.314
HARA	0.506
NCI-H1563	0.682

same assay, conditions: first compound 4 µM

Cell Line	relative viability
NCI-H2342	0.829
NCI-H1623	0.542
NCI-H727	0.462
NCI-H1650	0.304
NCI-H1993	0.572
SW 1573	0.144
NCI-H838	0.518
LCLC-103H	0.324
NCI-H520	0.429
NCI-H2126	0.511
EMC-BAC-2	0.499
NCI-H2085	0.52
HCC-366	0.573
NCI-H1666	0.537
NCI-H596	0.855
LK-2	0.217
NCI-H2087	0.459

Cell Line	relative viability
SK-MES-1	0.363
H3255	0.367
COR-L23	0.324
COR-L 105	0.5
LOU-NH91	0.558
ChaGo-K-1	0.412
NCI-H2170	0.441
NCI-H2405	0.398
HOP-62	0.664
HCC-44	0.232
A549	0.165
NCI-H522	0.692
LU99A	0.72
BEN	0.243
HARA	0.402
NCI-H1563	0.728

compound: O=c1ncccn1[C@@H]1O[C@H](CO)[C@@H](O)[C@H]1O [Zebularine] + N=C(N)NC(=N)NCCc1ccccc1 [Phenformin] (partner 250 µM); test: as above; settings: first compound 1 µM
How it was run: as §1

Cell Line	relative viability
NCI-H2342	0.635
NCI-H1623	0.624
NCI-H727	0.628
NCI-H1650	0.493
NCI-H1993	0.556
SW 1573	0.379
NCI-H838	0.695
LCLC-103H	0.365
NCI-H520	0.76
NCI-H2126	0.579
EMC-BAC-2	0.656
NCI-H2085	0.761
HCC-366	0.709
NCI-H1666	0.594
NCI-H596	0.844
LK-2	0.759
NCI-H2087	0.524

Cell Line	relative viability
SK-MES-1	0.755
H3255	0.34
COR-L23	0.468
COR-L 105	0.581
LOU-NH91	0.674
ChaGo-K-1	0.51
NCI-H2170	0.422
NCI-H2405	0.425
HOP-62	0.827
HCC-44	0.255
A549	0.209
NCI-H522	0.589
LU99A	0.856
BEN	0.285
HARA	0.506
NCI-H1563	0.684

same assay, conditions: first compound 3.162 µM

Cell Line	relative viability
NCI-H2342	0.528
NCI-H1623	0.531
NCI-H1650	0.476
NCI-H1993	0.477
SW 1573	0.404
NCI-H838	0.668
LCLC-103H	0.337
NCI-H520	0.6
NCI-H2126	0.473
EMC-BAC-2	0.569
NCI-H2085	0.663
HCC-366	0.613
NCI-H1666	0.551
NCI-H596	0.817
LK-2	0.355
NCI-H2087	0.448

Cell Line	relative viability
SK-MES-1	0.693
H3255	0.369
COR-L23	0.438
COR-L 105	0.488
LOU-NH91	0.717
ChaGo-K-1	0.458
NCI-H2170	0.424
NCI-H2405	0.378
HOP-62	0.653
HCC-44	0.212
A549	0.171
NCI-H522	0.631
LU99A	0.831
BEN	0.242
NCI-H1563	0.674

same assay, conditions: first compound 10 µM

Cell Line	relative viability
NCI-H2342	0.49
NCI-H1623	0.479
NCI-H1650	0.307
NCI-H1993	0.534
NCI-H838	0.549
LCLC-103H	0.261
NCI-H520	0.313
NCI-H2126	0.445
EMC-BAC-2	0.334
NCI-H2085	0.566
HCC-366	0.495
NCI-H1666	0.531
NCI-H596	0.579
LK-2	0.289
NCI-H2087	0.272
SK-MES-1	0.45
H3255	0.361
COR-L23	0.312
COR-L 105	0.314
LOU-NH91	0.437
ChaGo-K-1	0.278
NCI-H2170	0.376
NCI-H2405	0.352
HOP-62	0.286
HCC-44	0.145
A549	0.169
NCI-H522	0.622
LU99A	0.551
BEN	0.276
NCI-H1563	0.647

same assay, conditions: first compound 31.62 µM

Cell Line	relative viability
NCI-H2342	0.73
NCI-H1623	0.535
NCI-H727	0.693
NCI-H1650	0.492
NCI-H1993	0.449
SW 1573	0.406
NCI-H838	0.509
LCLC-103H	0.391
NCI-H520	0.332
NCI-H2126	0.494
EMC-BAC-2	0.662
NCI-H2085	0.673
HCC-366	0.503
NCI-H1666	0.591
NCI-H596	0.776
LK-2	0.372
NCI-H2087	0.385

Cell Line	relative viability
SK-MES-1	0.362
H3255	0.401
COR-L23	0.284
COR-L 105	0.575
LOU-NH91	0.693
ChaGo-K-1	0.25
NCI-H2170	0.41
NCI-H2405	0.435
HOP-62	0.282
HCC-44	0.144
A549	0.131
NCI-H522	0.656
LU99A	0.558
BEN	0.251
HARA	0.436
NCI-H1563	0.702

same assay, conditions: first compound 100 µM

Cell Line	relative viability
NCI-H2342	0.59
NCI-H1623	0.437
NCI-H727	0.528
NCI-H1650	0.353
NCI-H1993	0.548
SW 1573	0.227
NCI-H838	0.285
LCLC-103H	0.303
NCI-H520	0.206
NCI-H2126	0.435
EMC-BAC-2	0.516
NCI-H2085	0.539
HCC-366	0.0892
NCI-H1666	0.495
NCI-H596	0.807
LK-2	0.259
NCI-H2087	0.352

Cell Line	relative viability
SK-MES-1	0.226
H3255	0.353
COR-L23	0.165
COR-L 105	0.53
LOU-NH91	0.549
ChaGo-K-1	0.204
NCI-H2170	0.243
NCI-H2405	0.335
HOP-62	0.266
HCC-44	0.157
A549	0.122
NCI-H522	0.65
LU99A	0.208
BEN	0.202
HARA	0.272
NCI-H1563	0.661
